The text below walks through data of US7053107B2, “Indazole compounds and pharmaceutical compositions for inhibiting protein kinases, and methods for their use” (Agouron Pharmaceuticals, Inc., priority 2002, dated 2006).

Where two headings read alike, the source gives them in different places.

For data set [1], the target named is T1, LCK (Homo sapiens, UniProt P06239, C224D/P223M).
T1 construct: starting from amino acid residue 223 to the end of the protein at residue 509; made in house; host or cells: insect cells
T1 sequence (P06239 223-509 P223M/C224D): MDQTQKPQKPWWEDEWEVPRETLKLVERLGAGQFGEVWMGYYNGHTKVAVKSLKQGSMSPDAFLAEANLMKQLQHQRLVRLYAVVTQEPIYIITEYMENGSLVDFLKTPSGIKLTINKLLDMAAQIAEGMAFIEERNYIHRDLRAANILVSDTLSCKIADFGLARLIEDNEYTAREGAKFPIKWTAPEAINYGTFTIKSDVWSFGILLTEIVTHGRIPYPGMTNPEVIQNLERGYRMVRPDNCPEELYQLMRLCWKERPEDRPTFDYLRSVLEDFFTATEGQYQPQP
As to the kind of experiment: Lymphocyte-Specific Protein-Tyrosine Kinase (LCK) spectrophotometric assay. The data set is classed as biochemical. Particulars: 1 μM compound; read-out: LckP* % inhibit @1 μM.

For data set [2], the target named is T2, FGF-R1 (Homo sapiens, UniProt P11362, C488A/C584S/L457V).
T2 construct: starting from the endogenous methionine residue 456 to glutamate 766; made in house; host or cells: baculovirus vector expression system
T2 sequence (P11362 456-766 L457V/C488A/C584S): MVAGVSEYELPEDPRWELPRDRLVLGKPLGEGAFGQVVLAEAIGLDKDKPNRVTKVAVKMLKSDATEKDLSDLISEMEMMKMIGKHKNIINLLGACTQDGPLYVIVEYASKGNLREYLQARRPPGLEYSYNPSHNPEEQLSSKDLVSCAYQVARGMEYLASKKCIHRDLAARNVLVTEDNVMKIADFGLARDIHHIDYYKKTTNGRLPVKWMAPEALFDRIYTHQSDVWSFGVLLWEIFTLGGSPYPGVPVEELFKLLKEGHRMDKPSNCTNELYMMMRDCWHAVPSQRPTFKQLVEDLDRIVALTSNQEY
As to the kind of experiment: Fibroblast Growth Factor (FGF-R) spectrophotometric assay. The data set is classed as biochemical. Particulars: 1 μM compound; read-out: FGF-P % inhibit @1 μM. An excerpt: The intracellular kinase domain of human FGF-R1 was expressed using the baculovirus vector expression system starting from the endogenous methionine residue 456 to glutamate 766, according to the residue numbering system of Mohammadi et al., Mol. Cell. Biol., 16, 977–989 (1996). In addition, the construct also has the following 3 amino acid substitutions: L457V, C488A, and C584S.
(§1) The production of ADP from ATP that accompanies phosphoryl transfer was coupled to oxidation of NADH using phosphoenolpyruvate (PEP) and a system having pyruvate kinase (PK) and lactic dehydrogenase (LDH). The oxidation of NADH was monitored by following the decrease of absorbance at 340 nm (e340=6.22 cm^−1 mM^−1) using a Beckman DU 650 spectrophotometer. Assay conditions for phosphorylated VEGF-R2A50 (indicated as FLVK-P in the tables below) were the following: 1 mM PEP; 250 μM NADH; 50 units of LDH/mL; 20 units of PK/mL; 5 mM DTT; 5.1 mM poly(E4Y1); 1 mM ATP; and 25 mM MgCl2 in 200 mM HEPES, pH 7.5. Assay conditions for unphosphorylated VEGF-R2Δ50 (indicated as FLVK in the tables) were the following: 1 mM PEP; 250 μM NADH; 50 units of LDH/mL; 20 units of PK/mL; 5 mM DTT; […]; 3 mM ATP; and 60 mM MgCl2 and 2 mM MnCl2 in 200 mM HEPES, pH 7.5. Assays were initiated with 5 to 40 nM of enzyme. Ki values were determined by measuring enzyme activity in the presence of varying concentrations of test compounds. The data were analyzed using Enzyme Kinetic and Kaleidagraph software.
The spectrophotometric assay was carried out as described above for VEGF-R2, except for the following changes in concentration: FGF-R=50 nM, ATP=2 mM, and poly(E4Y1)=15 mM.

Data set [3] addresses T3, unphosphorylated VEGF-R2Δ50 (Homo sapiens, UniProt P35968, DEL940-989/E990V).
T3 construct: VEGF-R2Δ50 contains residues 806–939 and 990–1171; made in house; host or cells: baculovirus/insect cell system
The experiment in a line: VEGF-R2 coupled spectrophotometric assay, unphosphorylated construct (FLVK). Format: biochemical. The following applies: % inhibition at 50 nM compound; read-out: FLVK Ki % inh @ 50 nM.
Text: This construct determines the ability of a test compound to inhibit tyrosine kinase activity. A construct (VEGF-R2Δ50) of the cytosolic domain of human vascular endothelial growth factor receptor 2 (VEGF-R2) lacking the 50 central residues of the 68 residues of the kinase insert domain was expressed in a baculovirus/insect cell system. Of the 1356 residues of full-length VEGF-R2, VEGF-R2Δ50 contains residues 806–939 and 990–1171, and also one point mutation (E99OV) within the kinase insert domain relative to wild-type VEGF-R2. Autophosphorylation of the purified construct was performed by incubation of the enzyme at a concentration of 4 μM in the presence of 3 mM ATP and 40 mM MgCl2 in 100 mM HEPES, pH 7.5, containing 5% glycerol and 5 mM DTT, at 4° C. for 2 h. […] See Parast et al., Biochemistry, 37,16788–16801 (1998).
as §1

For data set [4], the system named is HUVEC. As to the kind of experiment: HUVEC + albumin proliferation. Format: cell-based. Particulars: Homo sapiens, 72 h, with albumin. The method, then: (§2) This assay determines the ability of a test compound to inhibit the growth factor-stimulated proliferation of human umbilical vein endothelial cells (“HUVEC”). HUVEC cells (passage 3–4, Clonetics, Corp.) were thawed into EGM2 culture medium (Clonetics Corp) in T75 flasks. Fresh EGM2 medium was added to the flasks 24 hours later. Four or five days later, cells were exposed to another culture medium (F12K medium supplemented with 10% fetal bovine serum (FBS), 60 μg/mL endothelial cell growth supplement (ECGS), and 0.1 mg/mL heparin). Exponentially-growing HUVEC cells were used in experiments thereafter. Ten to twelve thousand HUVEC cells were plated in 96-well dishes in 100 μl of rich, culture medium (described above). The cells were allowed to attach for 24 hours in this medium. The medium was then removed by aspiration and 105 μl of starvation media (F12K+1% FBS) was added to each well. After 24 hours, 15 μl of test agent dissolved in 1% DMSO in starvation medium or this vehicle alone was added into each treatment well; the final DMSO concentration was 0.1%. One hour later, 30 μl of VEGF (30 ng/mL) in starvation media was added to all wells except those containing untreated controls; the final VEGF concentration was 6 ng/mL. Cellular proliferation was quantified 72 hours later by MTT dye reduction, at which time cells were exposed for 4 hours MTT (Promega Corp.). Dye reduction was stopped by addition of a stop solution (Promega Corp.) and absorbance at 595λ was determined on a 96-well spectrophotometer plate reader.
(§3) IC50 values were calculated by curve-fitting the response of A^595 to various concentrations of the test agent; typically, seven concentrations separated by 0.5 log were employed, with triplicate wells at each concentration. For screening compound library plates, one or two concentrations (one well per concentration) were employed, and the % inhibition was calculated by the following formula: % inhibition=(control−test)[…](control−starvation) where

For data set [5], the target named is T4, PDGFRβ (Homo sapiens, UniProt P09619).
T4 construct: expressed in transfected cells; host or cells: porcine aorta endothelial (PAE) cells
T4 sequence (P09619 33-1106): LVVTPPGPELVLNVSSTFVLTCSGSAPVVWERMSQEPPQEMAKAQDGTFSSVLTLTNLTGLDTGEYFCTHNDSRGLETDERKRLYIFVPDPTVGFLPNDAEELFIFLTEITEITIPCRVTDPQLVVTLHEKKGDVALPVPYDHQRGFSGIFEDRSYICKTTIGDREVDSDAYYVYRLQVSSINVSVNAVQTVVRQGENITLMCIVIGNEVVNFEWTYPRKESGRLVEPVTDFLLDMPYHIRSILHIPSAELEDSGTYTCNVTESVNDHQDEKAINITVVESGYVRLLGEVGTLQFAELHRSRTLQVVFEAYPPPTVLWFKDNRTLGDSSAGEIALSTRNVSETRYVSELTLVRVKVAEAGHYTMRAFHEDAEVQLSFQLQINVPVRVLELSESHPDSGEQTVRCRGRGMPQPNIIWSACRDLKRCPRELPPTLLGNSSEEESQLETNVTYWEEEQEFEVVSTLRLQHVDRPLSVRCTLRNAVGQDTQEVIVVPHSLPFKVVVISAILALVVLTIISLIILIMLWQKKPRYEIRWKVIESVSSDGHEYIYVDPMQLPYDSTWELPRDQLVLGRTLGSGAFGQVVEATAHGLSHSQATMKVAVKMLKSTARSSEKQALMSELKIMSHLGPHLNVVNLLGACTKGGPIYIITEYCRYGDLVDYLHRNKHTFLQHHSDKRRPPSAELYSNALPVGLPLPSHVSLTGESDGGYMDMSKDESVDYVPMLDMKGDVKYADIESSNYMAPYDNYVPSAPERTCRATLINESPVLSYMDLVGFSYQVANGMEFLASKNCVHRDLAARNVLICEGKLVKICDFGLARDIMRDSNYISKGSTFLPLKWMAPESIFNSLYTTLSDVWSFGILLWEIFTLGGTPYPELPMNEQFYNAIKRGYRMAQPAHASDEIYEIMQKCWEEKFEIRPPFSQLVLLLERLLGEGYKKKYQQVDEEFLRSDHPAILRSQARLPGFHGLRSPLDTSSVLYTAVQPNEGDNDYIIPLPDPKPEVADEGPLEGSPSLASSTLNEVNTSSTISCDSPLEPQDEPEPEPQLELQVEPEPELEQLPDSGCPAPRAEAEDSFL
The experiment in a line: PAE-PDGFRβ Phosphorylation in PAE-PDGFRB Cells Assay. Format: cell-based. The following applies: PAE cells overexpressing human PDGFRβ; read-out: PAE PDGFR autophos IC50. The method, then:
This assay determines the ability of a test compound to inhibit the autophosphorylation of PDGFRβ in porcine aorta endothelial (PAE)-PDGFRβ cells. PAE cells that overexpress human PDGFRβ were used in this assay. The cells were cultured in Ham's F12 media supplemented with 10% fetal bovine serum (FBS) and 400 ug/ml G418. Twenty thousands cells were seeded in each well of a 96-well plate in 50 μL of growth media and allowed to attach for 6 hours at 37° C. Cells were then exposed to the starvation media (Ham's F12 media supplemented with 0.1% FBS) for 16 hours. After the starvation period was over, 10 μL of test agent in 5% DMSO in starvation media were added to the test wells and 10 μL of the vehicle (5% DMSO in starvation media) were added into the control wells. The final DMSO concentration in each well was 0.5%. Plates were incubated at 37° C. for 1 hour and the cells were then stimulated with 1 μg/mL PDGF-BB (R & D System) in the presence of 2 mM Na3VO4 for 8 minutes. The cells were washed once with 1 mm Na3VO4 in HBSS and lysed by adding 50 μL per well of lysis buffer. One hundred μL of dilution buffer were then added to each well and the diluted cell lysate was transferred to a 96-well goat ant-rabbit coated plate (Pierce), which was pre-coated with Rabbit anti Human PDGFRβ antibody (Santa Cruz). The plates were incubated at room temperature for 2 hours and washed seven times with 1% Tween 20 in PBS. HRP-PY20 (Santa Cruz) was diluted and added to the plate for a 30-minute incubation. Plates were then washed again and TMB peroxidase substrate (Kirkegaard & Perry) was added for a 10-minute incubation. One hundred μL of 0.09 N H2SO4 was added into each well of the 96-well plate to stop the reaction. Phosphorylation status was assessed by spectrophotometer reading at 450 nm. IC50 values were calculated by curve fitting using a four-parameter analysis.

Data set [6] can be described thus: Mouse PK Assay. The data set is classed as in vivo. The following applies: female, B6, plasma. The method, then:
The pharmacokinetics (e.g., absorption and elimination) of drugs in mice were analyzed using the following experiment. Test compounds were formulated as a solution or suspension in a 30:70 (PEG 400: acidified H2O) vehicle or as a suspension in 0.5% CMC. This was administered orally (p.o.) and intraperitoneally (i.p.) at variable doses to two distinct groups (n=4) of B6 female mice. Blood samples were collected via an orbital bleed at time points: 0 hour (pre-dose), 0.5 h, 1.0 h, 2.0 h, and 4.0 h, and 7.0 h post dose. Plasma was obtained from each sample by centrifugation at 2500 rpm for 5 min. Test compound was extracted from the plasma by an organic protein precipitation method. For each time bleed 50 μL of plasma was combined with 1.0 mL of acetonitrile, vortexed for 2 min. and then spun at 4000 rpm for 15 min. to precipitate the protein and extract out the test compound. […] Test-compound plasma concentrations (μg/mL) were determined by a comparison to standard curve (peak area vs. conc. μg/mL) using known concentrations of test compound extracted from plasma samples in the manner described above. […] The quantitated test samples were plotted for visual display using Kalidagraph software and their pharmacokinetic parameters were determined using WIN NONLIN software. […]

Data set [7] concerns human umbilical vein endothelial cells (HUVEC). As to the kind of experiment: HUVEC Proliferation Assay (VEGF-stimulated). The data set is classed as cell-based. The procedure:
as §2, §3
control=A^595 when VEGF is present without test agent
test=A^595 when VEGF is present with test agent
starvation=A^595 when VEGF and test agent are both absent.

Data set [8] has as its system HUVEC. As to the kind of experiment: bFGF Huvec. Format: cell-based. Particulars: Homo sapiens.
Data set [9] can be described thus: Human Liver Microsome (HLM) Assay. Format: in vitro ADME. Particulars: @0.5 h. The method, then:
Compound metabolism in human liver microsomes was measured by LC-MS analytical assay procedures as follows. First, human liver microsomes (HLM) were thawed and diluted to 5 mg/mL with cold 100 mM potassium phosphate (KPO4) buffer. Appropriate amounts of KPO4 buffer, NADPH-regenerating solution (containing B-NADP, glucose-6-phosphate, glucose-6-phosphate dehydrogenase, and MgCl2), and HLM were preincubated in 13×100 mm glass tubes at 37 C. for 10 min. (3 tubes per test compound—triplicate). Test compound (5 µM final) was added to each tube to initiate reaction and was mixed by gentle vortexing, followed by incubation at 37° C. […] Samples were centrifuged at 4000 rpm for 20 min. to precipitate proteins and salt (Beckman Allegra 6KR, S/N ALK98DO6, #634). Supernatant was transferred to new 12×75 mm glass tubes and evaporated by Speed-Vac centrifugal vacuum evaporator. Samples were reconstituted in 200 μL 0.1% formic acid/acetonitrile (90/10) and vortexed vigorously to dissolve. The samples were then transferred to separate polypropylene microcentrifuge tubes and centrifuged at 14000×g for 10 min. (Fisher Micro 14, S/N M0017580). […]
The combined compound samples were injected into the LC-MS system, composed of a Hewlett-Packard HP 1100 diode array HPLC and a Micromass Quattro II triple quadruple mass spectrometer operating in positive electrospray SIR mode (programmed to scan specifically for the molecular ion of each test compound. Each test compound peak was integrated at each timepoint. […]
(Microsomes from liver hold many membrane-bound enzymes, among them those of drug oxidation.)

T3 sequence (P35968 with tags, fused parts or gaps DEL940-989/E990V limits assumed): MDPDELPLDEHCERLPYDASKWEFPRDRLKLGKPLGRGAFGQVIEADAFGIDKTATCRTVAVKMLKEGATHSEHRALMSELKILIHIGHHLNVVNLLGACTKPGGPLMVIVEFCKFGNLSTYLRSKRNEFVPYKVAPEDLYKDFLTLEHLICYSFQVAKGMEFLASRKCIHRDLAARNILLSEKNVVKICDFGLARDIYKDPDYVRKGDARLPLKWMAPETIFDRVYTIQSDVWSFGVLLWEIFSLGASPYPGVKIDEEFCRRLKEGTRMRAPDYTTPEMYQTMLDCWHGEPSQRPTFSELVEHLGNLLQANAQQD

Turning to `Cn1cccc1C(=O)NNC(=O)c1ccccc1Nc1ccc2c(/C=C/c3ccccn3)n[nH]c2c1` [Example 3(f)], the results for the inhibition at 1 µM in data set [1] and in data set [2] were 41% and 60%, respectively. Moreover, the inhibition at 0.05 µM in data set [3] worked out at 95%. For the same compound, in data set [4], the IC50 (in general, the concentration that inhibits the measured activity by half) is above 100 nM.

With `Cc1ccnc(/C=C/c2n[nH]c3cc(Nc4ccccc4C(=O)NCc4ccncc4)ccc23)c1` [Example 38, 2-{3-[2-(4-Methyl-pyridin-2-yl)-vinyl]-1H-indazol6-ylamino}-N-pyridin-4-ylmethyl-benzamide], the IC50 in [5] came to 2 nM; in data set [4], 0.68 nM. The inhibition at 0.05 µM in data set [3] was determined as 75%.

As to `COC(=O)C(C(=O)OC)c1ccc(Cl)cc1[N+](=O)[O-]` [Example 1(a), 2-(4-Chloro-2-nitro-phenyl)-malonic acid dimethyl ester], the AUC (as a rule, concentration integrated over time) in data set [6] (ip, intraperitoneal, read-out: Mouse pK, AUC, ip) was 690 ng·h/mL; in data set [6] (oral, read-out: Mouse pK, AUC, po), 330 ng·h/mL.

Take `O=C(NCc1ccco1)c1ccccc1Nc1ccc2c(/C=C/c3ccccn3)n[nH]c2c1` [Example 3(i), N-Furan-2-ylmethyl-2-[3-((E)-2-pyridin-2-yl-vinyl)-1H-indazol-6-ylamino]-benzamide]: the IC50 in data set [5] was determined as 1.9 nM; in data set [7] it was 0.2 nM; in [8], 1000 nM. Also, the figures for the inhibition at 1 µM in data set [1] and in [2] were 22% and 45%, respectively. In addition, the inhibition at 0.05 µM in data set [3] was found to be 88%.

Consider `CC(C)ONC(=O)c1ccccc1Nc1ccc2c(/C=C/c3ccccn3)n[nH]c2c1` [Example 3(c), N-Isopropoxy-2-[3-((E)-2-pyridin-2-yl-vinyl)-1H-indazol-6-ylamino]-benzamide], for which, in [9], the “% remaining (HLM)” value is reported as 46@0.5 h %. Besides, the IC50 in data set [7] was found to be 0.43 nM; in data set [4], 9.2 nM. In addition, the inhibition at 1 µM in [1] was found to be 9%; in data set [2] it was 83%. Moreover, the inhibition at 0.05 µM in data set [3] came to 91%.
